Like-named read-outs stand apart in the source and are kept apart here.
Legend:
[1] = mice i.p., literature values, N.E. = not effective, cited from earlier work
[2] = rat, in vivo, po; cited from earlier work
[3] = rat p.o.; literature values; cited from earlier work
[4] = literature values; cited from earlier work
[5] = rat p.o.; literature values; N.E. = not effective; cited from earlier work
[6] = subcutaneous pentylenetetrazol (s.c. Met) seizure threshold test, mice i.p.; type: in vivo; conditions: for activity in s.c. Met model: doses up to 300 mg/kg
Source text: Convulsions were induced in mice

[7] = maximal electroshock (MES) test, mice i.p.; type: in vivo; conditions: for activity in MES model: doses up to 300 mg/kg
Source text: Convulsions were induced in mice

[8] = median lethal dose in mice; conditions: mouse, in vivo, ip
[9] = mice i.p.; literature values; cited from earlier work
[10] = type: in vivo, rat
Description: Tests were performed on day 10 after drug treatment. Latency, in seconds, represents response time to entry into dark compartment. Maximum latency is 300 sec. Longer latencies represent improved performance. Bars represent mean standard error (SEM).
(§1) The studies test for the level of motivation, association and short and long-term memory. The specific studies were the effect of compound 1 on the performance of rats in the locomotor test and passive and active response tests.
To measure passive avoidance responses, tests were performed on days 10, 12, 14, 20, and 26 after initiation of drug treatment. The apparatus consisted of a lit chamber that can be separated from a dark chamber by a sliding door. In the experiment, a rat is placed in a lit chamber for 30 sec, the door is then opened and the rat moves into the dark chamber with latency that is recorded. Upon entry into the dark chamber, the door is shut and a 0.3 mA footshock is delivered for 3 sec. Retention of the experience is determined after 48 hours by repeating the test and recording the latency. The maximum latency was arbitrarily assigned the value of 300 sec. Longer latencies are taken as a measure of improved memory.

[11] = maximal electroshock (MES) test, rat p.o.; type: in vivo; conditions: for ED100: Rattus norvegicus, rats, read-out: minimum dose giving full protection against seizures in the MES test
Source text: (§2) The first model, the subcutaneous pentylenetetrazol (s.c. Met) seizure threshold test, is a standard screening procedure to show efficacy for agents against absence seizures. The second model, the maximal electroshock (MES) test, is used to show efficacy for antiepileptic agents against generalized seizures. In these studies, convulsions were inhibited or prevented in mice after intraperitoneal (i.p.) administration and/or in rats after oral (p.o.) administration of the compounds.
(§3) N-(2-Propylpentanoyl)glycinamide (hereinafter compound 1) was further tested in two additional models. The third model, electrical kindling of rats, has been known to show efficacy of antiepileptic agents against complex partial seizures that evolve into generalized motor seizures. In these tests, rats were electrically stimulated via corneal electrodes twice daily for approximately 5 days and then once daily for an additional 10 days. Once the seizure criteria, as described by R. J. Racine, et al., Electroenceph. […] In addition, compound 1 was also tested in the subcutaneous bicuculline model (s.c. Bic).
and rats by subcutaneous administration of pentylenetetrazol (s.c. Met
test) or by electrical stimulation (MES test). N.E. = not effective.

[12] = background literature; cited from earlier work
[13] = rat p.o.; literature values; cited from earlier work; remark: listed apart in the source
[14] = type: in vivo, rat; design: key to Latency, Session I / Latency, Session II: latency in seconds for avoiding a potential shock
Description: Test was performed on days 16-17 (session 1) and 22-23 (session 2) after initiation of drug treatment. Better performance is indicated by an increase in avoidance score, a decrease in latency time, and an increase in the number of crossings.
as §1
The conditioned avoidance response (active avoidance test) of rats was determined in a Hugo-Basile automatic conditioning apparatus, which consists of a shuttle box with two separate floor grids. In this apparatus the rats are conditioned to jump from one side of the box to the other side. The conditioning is a 10 sec stimulus consisting of a light and electric buzzer. […] The session is then repeated with the same rats 7 days later. Experiments were carried out on days 16-17 and 22-23 from the start of drug treatment, and each rat received 60 trials with a 30 sec interval between each trial.
The following parameters were recorded: a) the number of potential shocks successfully avoided; b) the latency response in seconds for avoiding a potential shock; and c) the total number of crossings made throughout the trials. In this test, a better performance is indicated by an increase in the avoidance of an electric shock, a decrease in the latency time to jump to the other side of the cage, and an increase in the number of times the rats crossed to the other side of the cage.
Scores in the active avoidance test (conditioned avoidance response) of
rats treated with compound 1 and related drugs. The tests in the first
session were performed on days 16-17 from initiation of drug
administration. Those in session II were performed on days 22-23, that is
7 days following session I. Number of rats in a group are given in […]

[15] = neurotoxicity in rats (positional sense test and gait and stance test); type: in vivo; conditions: rat p.o.
Description: (§4) Neurotoxicity of the claimed agents was also assessed in mice (i.p. adminstration) by the rotorod ataxia test and also in some cases in rats (p.o. administration) by the positional sense test and gait and stance test.

[16] = type: in vivo, rat; remark: listed apart in the source
Description: as §1
In the locomotor test, motor activity was recorded 8 to 9 days after the beginning of drug treatment. Locomotion scores were recorded in cages (25×26cm) having a grid of infra-red beams at 4 cm intervals. Two categories of movements were recorded: small movements (those originating in stationary activities such as grooming and scratching), and big movements (those resulting in ambulation and recorded as the simultaneous crossing of more than two beams). Since rats are nocturnal animals, recordings were usually made between 18:00 PM-6:00 AM.
Activity scores of drugtreated rats, measured in activity cages on days
8-9 after initiation of daily oral dosing with the given drug. Figures ar
number of crossings ± SEM. Number of rats per group are given in […]

[17] = screen for protection against chemically and electrically induced convulsions (at least two models of epilepsy); type: in vivo; conditions: mice i.p. and/or rats p.o.; MES, s.c. Met, s.c. Bic, electrical kindling
Source text: as §2, §3

[18] = subcutaneous bicuculline model (s.c. Bic), mice; type: in vivo
Source text: as §3

[19] = electrical kindling model, rats p.o.; type: in vivo; conditions: po; rat p.o.
Source text: as §3

[20] = cognitive impairment tests in rats (locomotor, passive and active response tests); type: in vivo, rat; conditions: at minimum dose giving full protection in MES test
Source text: A major neurological side effect observed in patients on treatment with antiepileptic agents is cognitive impairment. […] Results from the models used are taken as indicators of major constituents of human cognition.
as §1

in vivo = conditions: mouse, ip
[21] = neurotoxicity in mice (rotorod ataxia test)
Description: as §4

[22] = rats, days 16-17, compound 1 200, carbamazepine 15, Na valproate 500 mg/kg
[23] = rats, days 22-23, compound 1 200, carbamazepine 15, Na valproate 500 mg/kg
[24] = rats, daily oral dosing, days 8-9, compound 1 200 mg/kg, Na Valproate 500 mg/kg, ± SEM

O=C1NC(=O)C(c2ccccc2)(c2ccccc2)N1 [Phenytoin]
ED50, s.c. MET model [1]: N.E.
TD50 (median neurological toxic dose) [2]: > 3000 mg/kg
ED50, MES model [3]: 29.8 mg/kg
efficacy in s.c. Bic model [4]: not effective
ED50, s.c. MET model [5]: N.E.

CCCCCNCC(N)=O [milacemide]
activity in s.c. Met model [6]: neither valproylglycine nor milacemide was active
activity in MES model [7]: neither valproylglycine nor milacemide was active

CCCC(CCC)C(=O)O [VPA, 2-propylpentanoic acid]
ED50, s.c. MET model [1]: 146 mg/kg
ED50, s.c. MET model ([1]; listed as Valproic acid): 149 mg/kg
ED50, MES model [3]: 490 mg/kg
LD50 [8]: 658 mg/kg
ED50, MES model [9]: 272 mg/kg
passive avoidance performance (retention) ([10]; rat, in vivo): performed much worse
ED100 ([11]; po): 500 mg/kg
adverse effects [12]: considerable adverse effects including hepatotoxicity and teratogenicity
ED50, electrical kindling model [13]: 117 mg/kg
ED50, s.c. MET model [5]: 180 mg/kg
active avoidance performance compared with control group ([14]; rat, in vivo): worse performance

NC(=O)N1c2ccccc2C=Cc2ccccc21 [Carbamizepine]
ED50, s.c. MET model [1]: N.E.
ED50, MES model [3]: 8.5 mg/kg
ED50, electrical kindling model [13]: 28.9 mg/kg
ED50, s.c. MET model [5]: N.E.
Avoidance, Session I [14, 22]: 7 ± 4
Crossings, Session I [14, 22]: 18 ± 10
Latency, Session I [14, 22]: 27 ± 2 s
Avoidance, Session II [14, 23]: 2 ± 2
Crossings, Session II [14, 23]: 11 ± 8
Latency, Session II [14, 23]: 29 ± 1 s

CCCC(CCC)C(=O)NCC(=O)O [valproylglycine]
activity in s.c. Met model [6]: neither valproylglycine nor milacemide was active
activity in MES model [7]: neither valproylglycine nor milacemide was active

CCCC(CCC)C(=O)NCC(N)=O [Compound 1, N-(2-n-Propylpentanoyl)glycinamide]
PI (protective index, TD50/ED50), s.c. MET model [6]: 2.9
ED50 ([6]; Mus musculus, ip, read-out: ED50, s.c. MET model): 127 mg/kg
TD50 ([15]; in vivo, po, read-out: TD50 (median neurological toxic dose)): > 1000 mg/kg
TD50 (median neurological toxic dose) [15]: > 1000 mg/kg
Big mov. (activity score), day activity 14.00-20.00 h [16, 24]: 2402 ± 307 number of crossings
Big mov. (activity score), night activity 20.00-08.00 h [16, 24]: 7217 ± 765 number of crossings
Total mov. (activity score), day activity 14.00-20.00 h [16, 24]: 7749 ± 1188 number of crossings
Total mov. (activity score), night activity 20.00-08.00 h [16, 24]: 22568 ± 2209 number of crossings
motor activity in locomotor test ([16]; rats, vs control): no significant difference in motor activity between the control and compound 1
anticonvulsant activity [17]: showed anticonvulsant activity in rodents in all of the above mentioned tests
passive avoidance performance (retention) ([10]; rats, day 16, compound 1 200 mg/kg, VPA 500 mg/kg, daily oral): retained their acquired knowledge to avoid the electric shock as well as the control group
protection from seizures, s.c. Bic model [18]: full protection from seizures in mice, at a dose that was approximately that of literature values for the ED50 for VPA
ED100 ([11]; po): 200 mg/kg
ED50 ([11]; po, rat p.o., read-out: ED50, MES model): 73 mg/kg
Pi (protective index, TD50/ED50), MES model ([11]; rat p.o.): > 13.7
ED50 in MES model, times lower (more efficacious) than VPA ([11]; rat p.o., vs VPA): seven
ED50 in MES model relative to phenytoin ([11]; rat p.o., vs phenytoin): approximately twice
ED50 [19]: 162 mg/kg
PI (protective index, TD50/ED50), MES model [7]: 2.4
ED50 ([7]; Mus musculus, ip, read-out: ED50, MES model): 152 mg/kg
cognitive impairment compared with VPA [20]: less cognitive impairment than VPA
LD50 (in vivo): > 4000 mg/kg
TD50 compared with VPA ([21]; mice i.p., vs VPA): significantly higher for compound 1 (less neurotoxic)
TD50 ([21]; mouse, in vivo, ip): 369 mg/kg
active avoidance performance ([14]; rats, compared with VPA group, compound 1 200 mg/kg, VPA 500 mg/kg, daily oral): significantly better performance than the VPA treated group
Avoidance, Session I [14, 22]: 14 ± 7
Crossings, Session I [14, 22]: 38 ± 13
Latency, Session I [14, 22]: 21 ± 3 s
Avoidance, Session II [14, 23]: 12 ± 7
Crossings, Session II [14, 23]: 35 ± 9
Latency, Session II [14, 23]: 22 ± 3 s

CCCC(CCC)C(=O)O [Na Valproate]
Big mov. (activity score), day activity 14.00-20.00 h ([16]; rat, in vivo): 2784 ± 352 number of crossings
Big mov. (activity score), night activity 20.00-08.00 h ([16]; rat, in vivo): 5832 ± 854 number of crossings
Total mov. (activity score), day activity 14.00-20.00 h ([16]; rat, in vivo): 8963 ± 1554 number of crossings
Total mov. (activity score), night activity 20.00-08.00 h ([16]; rat, in vivo): 18876 ± 2039 number of crossings
Avoidance, Session I ([14]; rat, in vivo): 2 ± 3
Avoidance, Session II ([14]; rat, in vivo): 6 ± 5
Crossings, Session I ([14]; rat, in vivo): 13 ± 2
Crossings, Session II ([14]; rat, in vivo): 16 ± 9
Latency, Session I ([14]; rat, in vivo): 28 ± 0.4
Latency, Session II ([14]; rat, in vivo): 27 ± 2

Reference: patent US5585358A, “Derivatives of valproic acid amides and 2-valproenoic acid amides, method of making and use thereof as anticonvulsant agents” (Yissum Research Development Corporation of the Hebrew …, priority 1993, dated 1996)
